Reference: US20140309419A1, “METHOD FOR ENHANCING THE THERMAL STABILITY OF IONIC COMPOUNDS” (Danmarks Tekniske Universite, priority 2011, published 2014)
Marks after values point to notes of the source that are not given here.

How the values were obtained:
[1] = Thermal stability by TGA, inflection point method (TA2950 TGA, 5° C./min, dried air); assay type: physicochemical; conditions: not supported/neat
Source text: (§1) The term “upper operating temperature” as used herein refers to the highest temperature to which the ionic compound can be heated without undergoing thermal degradation. This temperature is usually and routinely measured by Thermo Gravimetric Analysis (TGA) and/or Differential Scanning calorimetry (DSC).

[2] = Thermal stability by TGA, T5% onset method (Mettler-Toledo TGA/DSC, 5° C./min, nitrogen); assay type: physicochemical; conditions: not supported/neat
Source text: as §1

[3] = Thermal stability by TGA, supported vs. unsupported, evaluation method not marked
Experimental: To test for such influence, adsorption experiments with butylmethylimidazolium acetate [BMIM][OAc] on four different porous silica types was carried out (FIG. 7a, 7b). The silicas had the following pore diameters: PG2000 (pore diameter 2000 Å), PG500 (pore diameter 500 Å), PG75 (pore diameter 75 Å) and MCM-41 (pore diameter 50 Å).
The silicas had the following pore diameters: PG2000 (pore diameter 2000 Å), PG500 (pore diameter 500 Å) and PG75 (pore diameter 75 Å).
Thermal stability was measured by using thermogravimetric analysis (TGA), with isocratic heating at 5° C. min^−1 under an inert nitrogen and/or dried air atmosphere. The decomposition temperatures were determined from both the T5% onset (onset temperature for 5% decomposition) in an isocratic TGA experiment, and from the inflection point (temperature at the inflection point of TGA curve, which indicates the point where the degradation rate is maximum). For T5% onset measurements, thermal stability was determined in a Mettler-Toledo Star^e TGA/DSC unit by heating from 25° C. to 800° C. with a heating rate of 5° C./min under nitrogen. For inflection point measurements, thermal stability was determined using a TA2950 TGA unit by heating from 25° C. to 800° C. with a heating rate of 5° C./min under dried air.

[4] = 10% (wt/wt) on PG75 silica (pore diameter 75 Å)
[5] = 10% (wt/wt) on PG500 silica (pore diameter 500 Å)
[6] = 10% (wt/wt) on PG2000 silica (pore diameter 2000 Å)

| SMILES | Thermal Stability (inflection point) [1] | enhancement of thermal stability vs. unsupported [3, 4] | enhancement of thermal stability vs. unsupported [3, 5] | enhancement of thermal stability vs. unsupported [3, 6] | other results |
| --- | --- | --- | --- | --- | --- |
| CCCCC(CC)COC(=O)CC(C(=O)OCC(CC)CCCC)S(=O)(=O)O (centres unmarked) [Dioctylsulfosuccinic Acid [3], Dioctylsulfosuccinic Acid] | 161.86^b ° C. |  |  |  |  |
| CC(C)Cc1ccc(C(C)C(=O)O)cc1 (centres unmarked) [Ibuprofene (free acid), Ibuprofene] |  |  |  |  | Thermal Stability (T5% onset) [2]: 154.7^a ° C. |
| CC[N+](CC)(CC)CC.O=C(O)CNCP(=O)([O-])O [Tetraethylammonium Glyphosate [5], Tetraethylammonium Glyphosate] | 149.76^b ° C. |  |  |  |  |
| CCCCCCCCCCCCCCCC[N+](C)(C)C.Nc1nc2c(ncn2COCCO)c(=O)[n-]1 [Trimethylhexadecylammonium acyclovir [2], Trimethylhexadecylammonium Acyclovir] | 188.60^b ° C. |  |  |  |  |
| CCCCn1cc[n+](C)c1.[Cl-] [[BMIM][Cl], butylmethylimidazolium chloride] |  | no enhancement of thermal stability | no enhancement of thermal stability | no enhancement of thermal stability |  |
| CC(=O)[O-].CCCCn1cc[n+](C)c1 [[BMIM][OAc], butylmethylimidazolium acetate] |  | significant enhancement of the thermal stability | no enhancement of thermal stability | no enhancement of thermal stability | enhancement of thermal stability vs. unsupported ([3]; 10% (wt/wt) on MCM-41 silica (pore diameter 50 Å)): significant enhancement of the thermal stability |
